In patent US9650395B2, “Antibacterial compounds and methods for use” (PTC Therapeutics, Inc., priority 2011, dated 2017) one finds MIC data, which are given here for seven molecules.

SMILES strings stand for the structures. Converted amounts (≈) assume the structure as drawn. Like-named read-outs stand apart in the source and are kept apart here.

For test [1], the system named is super sensitive Gram-negative Escherichia coli (E. coli) BAS849. Nature of the test: Antibacterial activity, microbroth dilution MIC, E. coli BAS849. The test is classed as cell-based. The settings on record: Escherichia coli, read-out: MIC, BAS849. A general note: Dilution methods test growth across graded concentrations, often in twofold steps.
The test system of test [2] is control Gram-negative E. coli 25922 strain. Nature of the test: Antibacterial activity, microbroth dilution MIC, E. coli 25922. Format: cell-based, Escherichia coli. The settings on record: Escherichia coli; E. coli 25922, microbroth dilution; read-out: MIC, 25922.
Test [3] concerns Gram-positive Staphylococcus aureus (S. aureus) 29213. Nature of the test: Antibacterial activity, microbroth dilution MIC, S. aureus 29213. Format: cell-based. The settings on record: Staphylococcus aureus; S. aureus 29213, microbroth dilution; read-out: MIC, 29213.
Test [4] concerns quinolone resistant E. coli LZ3111. Nature of the test: Antibacterial activity, MIC, quinolone resistant E. coli LZ3111. Format: cell-based, Escherichia coli. The settings on record: Escherichia coli, read-out: MIC, LZ3111. An excerpt: (§1) The antibacterial activity from a microbroth dilution method may be presented as the minimum inhibitory concentration (MIC in […]). The MIC value is the lowest concentration of a drug which prevents macroscopically visible bacterial growth under test conditions.
Mutations in these regions are known to confer a high level resistance to the quinolone class of antibiotics.

Test [5] has as its system E. coli ELZ4000 (MDR clinical isolate). Kind of test: Antibacterial activity, MIC, MDR E. coli ELZ4000. The following applies: Escherichia coli; E. coli ELZ4000, MDR clinical isolate; read-out: MIC ELZ4000. The test is classed as cell-based, Escherichia coli.
Test [6] relates to E. coli ELZ4251 (MDR clinical isolate). Nature of the test: Antibacterial activity, MIC, MDR E. coli ELZ4251. The test is classed as cell-based, Escherichia coli. The settings on record: Escherichia coli, E. coli ELZ4251, MDR clinical isolate; read-out: MIC ELZ4251.
In test [7] the test system is Moraxella catarrhalis (M. catarrhalis) 25238. Nature of the test: Antibacterial activity, MIC, M. catarrhalis 25238. The following applies: Moraxella catarrhalis, M. catarrhalis 25238; read-out: MIC 25238. The test is classed as cell-based.
The test system of test [8] is Neisseria meningitidis (N. meningitidis) 13090. Nature of the test: Antibacterial activity, MIC, N. meningitidis 13090. Format: cell-based. The settings on record: Neisseria meningitidis; N. meningitidis 13090; read-out: MIC 13090.
Test [9] relates to Haemophilus influenzae (H. influenzae) 49247. Nature of the test: Antibacterial activity, MIC, H. influenzae 49247. The test is classed as cell-based. The settings on record: Haemophilus influenzae; H. influenzae 49247; read-out: MIC 49247.
Description: as §1
Antibacterial activity of test compounds against the Gram-negative bacteria Haemophilus influenzae (H. influenzae) 49247, Moraxella catarrhalis (M. catarrhalis) 25238 and Neisseria meningitidis (N. meningitidis) 13090 is shown in Table 6.

Where [10] appears, read: E. coli BAS849, microbroth dilution.

Turning to `CCc1c(-c2ccc(N3C[C@H]4CN(C)C[C@H]4C3)cc2)[nH]c(=O)c(C(=O)O)c1O.Cl` [Cpd 273, 5-ethyl-4-hydroxy-6-{4-[(3aR,6aS)-5-methylhexahydropyrrolo[3,4-c]pyrrol-2(1H)-yl]phenyl}-2-oxo-1,2-dihydropyridine-3-carboxylic acid hydrochloride], the MIC in [1] (setting [10]) was below 1 mg/L; in test [2], 1 to 3.5 mg/L; in test [3] it was 12.5 to 150 mg/L; in test [4], 12.5 to 150 mg/L; in test [5], 12.5 to 150 mg/L; in test [6] it was 12.5 to 150 mg/L. Further, the MIC in test [7] and in [8] was 1 to 3.5 mg/L each time.

As for `CCc1cc(C(=O)O)c(=O)[nH]c1-c1ccc(N2C[C@H]3CCN(C)[C@H]3C2)cc1.O=C(O)C(F)(F)F` [Cpd 187, 5-ethyl-6-{4-[(3aR,6aR)-1-methylhexahydropyrrolo[3,4-b]pyrrol-5(1H)-yl]phenyl}-2-oxo-1,2-dihydropyridine-3-carboxylic acid trifluoroacetate], the MIC was below 1 mg/L in test [1]; 3.5 to 12.5 mg/L in test [2]; 12.5 to 150 mg/L in [3]; 12.5 to 150 mg/L in test [4]; 12.5 to 150 mg/L in test [5]; 12.5 to 150 mg/L in test [6]. Moreover, the MIC in test [7] was 1 to 3.5 mg/L; in test [8], below 1 mg/L.

Take `CCc1cc(C(=O)O)c(=O)[nH]c1-c1ccc(N(C)CCOC2CCCCO2)cc1` (centres unmarked) [Cpd 16, 5-ethyl-6-(4-{methyl[2-(tetrahydro-2H-pyran-2-yloxy)ethyl]amino}phenyl)-2-oxo-1,2-dihydropyridine-3-carboxylic acid]: the MIC in test [1] (setting [10]) is below 1 mg/L; in test [2] it was 3.5 to 12.5 mg/L (≈ 8.74 to 31.2 µM); in test [3], 12.5 to 150 mg/L (≈ 31.2 to 375 µM); in test [4], 12.5 to 150 mg/L (≈ 31.2 to 375 µM); in test [5], 12.5 to 150 mg/L (≈ 31.2 to 375 µM); in test [6], 12.5 to 150 mg/L (≈ 31.2 to 375 µM). The MIC in [9] and in test [7] was below 1 mg/L each time.

Consider `CCc1c(-c2ccc(N(C)CCO)cc2)[nH]c(=O)c(C(=O)O)c1O` [Cpd 18, 5-ethyl-4-hydroxy-6-{4-[(2-hydroxyethyl)(methyl)amino]phenyl}-2-oxo-1,2-dihydropyridine-3-carboxylic acid], for which the MIC in [1] (setting [10]) is below 1 mg/L; in test [2], 3.5 to 12.5 mg/L (≈ 10.5 to 37.6 µM); in test [3], 3.5 to 12.5 mg/L (≈ 10.5 to 37.6 µM); in [4], 12.5 to 150 mg/L (≈ 37.6 to 451 µM); in [5], 12.5 to 150 mg/L (≈ 37.6 to 451 µM); in test [6], 12.5 to 150 mg/L (≈ 37.6 to 451 µM). In addition, the MIC in [9] and in [7] was below 1 mg/L throughout.

Regarding `CCc1cc(C(=O)O)c(=O)[nH]c1-c1ccc(N2CCC(CNCc3ccccc3)C2)cc1.Cl` (centres unmarked) [Cpd 182, 6-(4-{3-[(benzylamino)methyl]pyrrolidin-1-yl}phenyl)-5-ethyl-2-oxo-1,2-dihydropyridine-3-carboxylic acid hydrochloride], the MIC was below 1 mg/L in test [1] (setting [10]); below 1 mg/L in test [2]; 12.5 to 150 mg/L in test [3]; 12.5 to 150 mg/L in [4]; 12.5 to 150 mg/L in [5]; 12.5 to 150 mg/L in test [6]. The MIC in test [7] and in [8] was below 1 mg/L throughout.

Consider `CCc1cc(C(=O)O)c(=O)[nH]c1-c1ccc(N(C)CC)cc1` [Cpd 160, 5-ethyl-6-{4-[ethyl(methyl)amino]phenyl}-2-oxo-1,2-dihydropyridine-3-carboxylic acid], for which the MIC is below 1 mg/L in test [1] (setting [10]); 1 to 3.5 mg/L (≈ 3.33 to 11.7 µM) in test [2]; 12.5 to 150 mg/L (≈ 41.6 to 499 µM) in [3]; 12.5 to 150 mg/L (≈ 41.6 to 499 µM) in [4]; 12.5 to 150 mg/L (≈ 41.6 to 499 µM) in test [5]; 12.5 to 150 mg/L (≈ 41.6 to 499 µM) in [6]. The MIC in [9] and in test [7] was below 1 mg/L throughout.

For the molecule `CCc1cc(C(=O)O)c(=O)[nH]c1-c1ccc(N2CCC(CN(C)C)C2)cc1.O=C(O)C(F)(F)F` (centres unmarked) [Cpd 185, 6-(4-{3-[(dimethylamino)methyl]pyrrolidin-1-yl}phenyl)-5-ethyl-2-oxo-1,2-dihydropyridine-3-carboxylic acid trifluoroacetate], the MIC in [1] was below 1 mg/L; in test [2], 3.5 to 12.5 mg/L; in test [3] it was 12.5 to 150 mg/L; in [4], 12.5 to 150 mg/L; in [5], 12.5 to 150 mg/L; in test [6], 12.5 to 150 mg/L. Moreover, the MIC in test [7] is 1 to 3.5 mg/L; in test [8], below 1 mg/L.
